{
  "source": "patent US20250169531A1",
  "about": "(priority 2023, published 2025)",
  "origin": "cited, not measured here",
  "conditions": "at 25° C.",
  "data": [
    {"smiles": "CN1CCCC1c1cccnc1", "note": "(stereo not shown) [Nicotine]", "values": [
      {"measurement": "pka of the nitrogen of the pyridine ring", "result": 3.41}
    ]}
  ]
}
